Data reported in patent publication US20230393148A1, “KITS, REAGENTS AND METHODS FOR THE ASSESSMENT OF LIVER DISEASES” (The General Hospital Corporation, priority 2020, published 2023).
* marks the point of attachment. Hexenoyl(3E) = CC/C=C/CC(=O)*

Tests used:
CASP8 = assay: Plasma CASP8 by Olink proximity extension assay, randomized trial of tesamorelin vs placebo; format: in vivo, human; details: HIV-associated NAFLD, tesamorelin 2 mg daily, change over 12 months, plasma NPX, mean ± SD, n = 20
Protocol: (§1) A randomized, double blind trial in which individuals with HIV-associated NAFLD were assigned to receive the growth hormone-releasing hormone (GHRH) analogue tesamorelin 2 mg daily or identical placebo for 12 months (7). […] Changes in circulating levels of proteins corresponding to top leading-edge genes in pathways responsive to tesamorelin between treatment groups were investigated, and the relationships of these proteins to histologic, radiographic, and transcriptomic indices was assessed to identify plasmatic markers of NAFLD/NASH and elucidate potential mechanisms of tesamorelin response.
(§2) 61 men and women 18-70 years old who had documented HIV infection and liver steatosis as defined by hepatic fat fraction ≥5% on ^1H-magnetic resonance spectroscopy (^1H-MRS) were enrolled. […]
(§3) Study procedures for the parent clinical trial have been described in detail elsewhere (7, 9). […] Serum IGF-1 was measured using standard techniques (Quest Laboratories).
(§4) For this analysis, change in targeted proteins over 12 months was assessed using an Olink® Multiplex proximity extension assay (PEA) platform. The PEA is an affinity-based assay that characterizes abundance levels of pre-determined sets of proteins. […] The resultant DNA sequence is detected and quantified using standard real-time PCR on the Fluidigm BioMark™ HD real-time PCR platform. […]

CCL20 = assay: Plasma CCL20 by Olink proximity extension assay, randomized trial of tesamorelin vs placebo; format: in vivo, human; details: HIV-associated NAFLD, tesamorelin 2 mg daily, change over 12 months, plasma NPX, mean ± SD, n = 20
Protocol: as §1, §2, §3, §4

CRTAM = assay: Plasma CRTAM by Olink proximity extension assay, randomized trial of tesamorelin vs placebo; format: in vivo, human; details: HIV-associated NAFLD, tesamorelin 2 mg daily, change over 12 months, plasma NPX, mean ± SD, n = 20
Protocol: as §1, §2, §3, §4

CSF1 = assay: Plasma CSF1 by Olink proximity extension assay, randomized trial of tesamorelin vs placebo; format: in vivo, human; details: HIV-associated NAFLD, tesamorelin 2 mg daily, change over 12 months, plasma NPX, mean ± SD, n = 20
Protocol: as §1, §2, §3, §4

CXCL12 = assay: Plasma CXCL12 by Olink proximity extension assay, randomized trial of tesamorelin vs placebo; format: in vivo, human; details: HIV-associated NAFLD, tesamorelin 2 mg daily, change over 12 months, plasma NPX, mean ± SD, n = 20
Protocol: as §1, §2, §3, §4

NCR1 = assay: Plasma NCR1 by Olink proximity extension assay, randomized trial of tesamorelin vs placebo; format: in vivo, human; details: HIV-associated NAFLD, tesamorelin 2 mg daily, change over 12 months, plasma NPX, mean ± SD, n = 20
Protocol: as §1, §2, §3, §4

TGFB1 = assay: Plasma TGFB1 by Olink proximity extension assay, randomized trial of tesamorelin vs placebo; format: in vivo, human; details: HIV-associated NAFLD, tesamorelin 2 mg daily, change over 12 months, plasma NPX, mean ± SD, n = 20
Protocol: as §1, §2, §3, §4

TNFRSF21 = assay: Plasma TNFRSF21 by Olink proximity extension assay, randomized trial of tesamorelin vs placebo; format: in vivo, human; details: HIV-associated NAFLD, tesamorelin 2 mg daily, change over 12 months, plasma NPX, mean ± SD, n = 20
Protocol: as §1, §2, §3, §4

VEGFA = assay: Plasma VEGFA by Olink proximity extension assay, randomized trial of tesamorelin vs placebo; format: in vivo, human; details: HIV-associated NAFLD, tesamorelin 2 mg daily, change over 12 months, plasma NPX, mean ± SD, n = 20
Protocol: as §1, §2, §3, §4

hallmark gene pathways = details: liver biopsy, pre- to post-treatment (12 months), tesamorelin versus placebo, GSEA FDR <0.05; cited from earlier work

trans-3-hexenoyl-GHRH(1-44)-NH2 ({Hexenoyl(3E)}-YADAIFTNSYRKVLGQLSARKLLQDIMSRQQGESNQERGARARL-NH2) [Tesamorelin]
Log2-Fold change plasma CASP8 (CASP8): −0.37 ± 0.72 | Log2-Fold change plasma CCL20 (CCL20): −0.28 ± 0.88 | Log2-Fold change plasma CCL20 (CCL20; listed as tesamorelin): −0.28±0.88 | Log2-Fold change plasma CRTAM (CRTAM): −0.35 ± 0.73 | Log2-Fold change plasma CSF1 (CSF1): −0.17±0.21 | Log2-Fold change plasma CSF1 (CSF1; listed as tesamorelin): −0.17±0.21 | Log2-Fold change plasma CXCL12 (CXCL12): −0.03 ± 0.18 | Log2-Fold change plasma NCR1 (NCR1): −0.20 ± 0.52 | Log2-Fold change plasma TGFB1 (TGFB1): −0.35±0.56 | Log2-Fold change plasma TGFB1 (TGFB1; listed as tesamorelin): −0.35±0.56 | Log2-Fold change plasma TNFRSF21 (TNFRSF21): −0.13 ± 0.22 | Log2-Fold change plasma VEGFA (VEGFA): −0.20±0.35 | Log2-Fold change plasma VEGFA (VEGFA; listed as tesamorelin): −0.20±0.35 | 13 hepatic gene sets involved in inflammation, tissue repair, and cell division, regulation with treatment (hallmark gene pathways): downregulated | Hepatic gene set pertaining to oxidative phosphorylation, regulation with treatment (hallmark gene pathways): upregulated
